{"source": "patent US10323022B2", "about": "“Pyrrolidinyl urea, pyrrolidinyl thiourea and pyrrolidinyl guanidine compounds as TrkA kinase inhibitors” (Array BioPharma Inc., priority 2011, dated 2019)", "data": [{"molecular_target": "TrkA (Homo sapiens (Human), UniProt P04629)", "sequence (P04629 33-796)": "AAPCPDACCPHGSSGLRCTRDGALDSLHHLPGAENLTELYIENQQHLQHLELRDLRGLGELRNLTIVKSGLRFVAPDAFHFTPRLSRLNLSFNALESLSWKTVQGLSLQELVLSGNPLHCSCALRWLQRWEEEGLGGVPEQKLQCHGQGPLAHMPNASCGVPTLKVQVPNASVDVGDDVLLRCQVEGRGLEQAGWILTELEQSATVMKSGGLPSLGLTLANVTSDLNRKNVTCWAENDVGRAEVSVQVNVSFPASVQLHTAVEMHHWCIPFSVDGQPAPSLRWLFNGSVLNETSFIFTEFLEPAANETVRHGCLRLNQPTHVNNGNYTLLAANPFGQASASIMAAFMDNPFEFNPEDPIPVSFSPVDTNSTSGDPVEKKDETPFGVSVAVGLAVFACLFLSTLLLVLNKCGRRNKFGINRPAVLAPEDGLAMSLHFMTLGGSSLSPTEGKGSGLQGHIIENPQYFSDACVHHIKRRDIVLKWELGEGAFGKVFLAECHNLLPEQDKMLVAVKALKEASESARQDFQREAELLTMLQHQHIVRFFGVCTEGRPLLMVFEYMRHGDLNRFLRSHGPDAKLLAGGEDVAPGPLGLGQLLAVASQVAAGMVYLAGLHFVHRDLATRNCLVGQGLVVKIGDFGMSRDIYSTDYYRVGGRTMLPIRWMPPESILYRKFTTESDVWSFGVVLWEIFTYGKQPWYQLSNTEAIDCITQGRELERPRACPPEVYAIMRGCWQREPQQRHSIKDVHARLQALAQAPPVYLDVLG", "assay": "TrkA Omnia Assay", "type": "biochemical", "conditions": "averaged IC50; 20 nM enzyme, 500 μM ATP, 10 μM peptide substrate", "summary_of_the_method": "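Continuous fluorescent kinase read-out (ex 360 nm, em 485 nm) over 70 min, with initial rates fitted to 4- or 5-parameter logistic curves for IC50. Final conditions: 500 μM ATP, 10 μM Omnia Tyr Peptide #4, 20 nM TrkA, MOPS pH 7.5 buffer with MgCl2 and Triton X-100; enzyme and compound preincubated 10 min at ambient temperature.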", "units": {"IC50": "nM"}, "values": [{"smiles": "COCCN1C[C@@H](NC(=O)Nc2cc(-c3cccc(OC)c3)nn2C)[C@H](c2ccc(F)c(F)c2)C1", "note": "[Example 105, 1-((3S,4R)-4-(3,4-difluorophenyl)-1-(2-methoxyethyl)pyrrolidin-3-yl)-3-(3-(3-methoxy-phenyl)-1-methyl-1H-pyrazol-5-yl)urea]", "IC50": "< 100"}, {"smiles": "COCCN1C[C@@H](NC(=O)Nc2cc(-c3ccccc3OC)nn2C)[C@H](c2ccc(F)c(F)c2)C1", "note": "[Example 106, 1-((3S,4R)-4-(3,4-difluorophenyl)-1-(2-methoxyethyl)pyrrolidin-3-yl)-3-(3-(2-methoxy-phenyl)-1-methyl-1H-pyrazol-5-yl)urea]", "IC50": "100 to 1000"}, {"smiles": "COCCN1C[C@@H](NC(=O)Nc2cc(-c3ccc(F)cc3)nn2C)[C@H](c2ccccc2)C1", "note": "[Example 107, 1-(3-(4-fluorophenyl)-1-methyl-1H-pyrazol-5-yl)-3-((3S,4R)-1-(2-methoxy-ethyl)-4-phenylpyrrolidin-3-yl)urea]", "IC50": "< 100"}, {"smiles": "COCCN1C[C@@H](NC(=O)Nc2cc(-c3ccc(OC)cc3)nn2C)[C@H](c2ccccc2)C1", "note": "[Example 108, 1-((3S,4R)-1-(2-methoxy-ethyl)-4-phenylpyrrolidin-3-yl)-3-(3-(4-methoxy-phenyl)-1-methyl-1H-pyrazol-5-yl)urea]", "IC50": "< 100"}, {"smiles": "COCCN1C[C@@H](NC(=O)Nc2cc(-c3ccccc3)nn2C)[C@H](c2cccc(C(F)(F)F)c2)C1", "note": "[Example 109, 1-((3S,4R)-1-(2-methoxy-ethyl)-4-(3-(trifluoro-methyl)phenyl)pyrrolidin-3-yl)-3-(1-methyl-3-phenyl-1H-pyrazol-5-yl) urea]", "IC50": "100 to 1000"}, {"smiles": "COCCN1C[C@@H](NC(=O)Nc2cc(-c3ccccc3)nn2C)[C@H](c2cccc(F)c2)C1", "note": "[Example 110, 1-((3S,4R)-4-(3-fluoro-phenyl)-1-(2-methoxy-ethyl)pyrrolidin-3-yl)-3-(1-methyl-3-phenyl-1H-pyrazol-5-yl)urea]", "IC50": "< 100"}, {"smiles": "COCCN1C[C@@H](NC(=O)Nc2cc(-c3ccccc3)nn2C)[C@H](c2ccc(F)cc2F)C1", "note": "[Example 111, 1-((3S,4R)-4-(2,4-difluorophenyl)-1-(2-methoxyethyl)pyrrolidin-3-yl)-3-(1-methyl-3-phenyl-1H-pyrazol-5-yl)urea]", "IC50": "< 100"}, {"smiles": "COCCN1C[C@@H](NC(=O)Nc2cc(-c3ccc(F)cc3)nn2C)[C@H](c2cccc(F)c2)C1", "note": "[Example 112, 1-((3S,4R)-4-(3-fluoro-phenyl)-1-(2-methoxy-ethyl)pyrrolidin-3-yl)-3-(3-(4-fluorophenyl)-1-methyl-1H-pyrazol-5-yl)urea]", "IC50": "< 100"}, {"smiles": "COCCN1C[C@@H](NC(=O)Nc2cc(-c3ccc(F)cc3)nn2C)[C@H](c2ccc(F)c(F)c2)C1", "note": "[Example 113, 1-((3S,4R)-4-(3,4-difluorophenyl)-1-(2-methoxyethyl)pyrrolidin-3-yl)-3-(3-(4-fluoro-phenyl)-1-methyl-1H-pyrazol-5-yl)urea]", "IC50": "< 100"}, {"smiles": "COCCN1C[C@@H](NC(=O)Nc2cc(-c3cccc(F)c3)nn2C)[C@H](c2ccc(F)c(F)c2)C1", "note": "[Example 114, 1-((3S,4R)-4-(3,4-difluorophenyl)-1-(2-methoxyethyl)pyrrolidin-3-yl)-3-(3-(3-fluoro-phenyl)-1-methyl-1H-pyrazol-5-yl)urea]", "IC50": "< 100"}, {"smiles": "COCCN1C[C@@H](NC(=O)Nc2cc(-c3ccccc3F)nn2C)[C@H](c2ccc(F)c(F)c2)C1", "note": "[Example 115, 1-((3S,4R)-4-(3,4-difluorophenyl)-1-(2-methoxyethyl)pyrrolidin-3-yl)-3-(3-(2-fluoro-phenyl)-1-methyl-1H-pyrazol-5-yl)urea]", "IC50": "< 100"}, {"smiles": "COCCN1C[C@@H](NC(=O)Nc2c3c(nn2-c2ccccc2)CCC3)[C@H](c2cccc(F)c2)C1", "note": "[Example 116, 1-((3S,4R)-4-(3-fluoro-phenyl)-1-(2-methoxy-ethyl)pyrrolidin-3-yl)-3-(2-phenyl-2,4,5,6-tetrahydrocyclopenta [c]pyrazol-3-yl)urea]", "IC50": "< 100"}, {"smiles": "COCCN1C[C@@H](NC(=O)Nc2c(C)c(C(C)(C)CO)nn2-c2ccccc2)[C@H](c2ccccc2)C1", "note": "[Example 117, 1-(3-(1-hydroxy-2-methylpropan-2-yl)-4-methyl-1-phenyl-1H-pyrazol-5-yl)-3-((3S,4R)-1-(2-methoxyethyl)-4-phenylpyrrolidin-3-yl) urea]", "IC50": "< 100"}, {"smiles": "COCCN1C[C@@H](NC(=O)Nc2c(C)c(C(C)(C)CO)nn2-c2ccccc2)[C@H](c2ccc(F)c(F)c2)C1", "note": "[Example 118, 1-((3S,4R)-4-(3,4-difluorophenyl)-1-(2-methoxyethyl)pyrrolidin-3-yl)-3-(3-(1-hydroxy-2-methylpropan-2-yl)-4-methyl-1-phenyl-1H-pyrazol-5-yl)urea]", "IC50": "< 100"}, {"smiles": "COCCN1C[C@@H](NC(=O)Nc2cc(-c3ccc(Cl)cc3)nn2C)[C@H](c2ccc(F)c(F)c2)C1", "note": "[Example 119, 1-(3-(4-chlorophenyl)-1-methyl-1H-pyrazol-5-yl)-3-((3S,4R)-4-(3,4-difluorophenyl)-1-(2-methoxyethyl)pyrrolidin-3-yl)urea]", "IC50": "< 100"}, {"smiles": "COCCN1C[C@@H](NC(=O)Nc2cc(-c3ccc(F)cc3)nn2C)[C@H](c2cc(F)ccc2F)C1", "note": "[Example 120, 1-((3S,4R)-4-(2,5-difluorophenyl)-1-(2-methoxyethyl)pyrrolidin-3-yl)-3-(3-(4-fluoro-phenyl)-1-methyl-1H-pyrazol-5-yl)urea]", "IC50": "< 100"}, {"smiles": "COCCN1C[C@@H](NC(=O)Nc2cc(-c3ccc(C(=O)OC)cc3)nn2C)[C@H](c2ccc(F)c(F)c2)C1", "note": "[Example 121, methyl 4-(5-(3-((3S,4R)-4-(3,4-difluorophenyl)-1-(2-methoxyethyl)pyrrolidin-3-yl)ureido)-1-methyl-1H-pyrazol-3-yl)benzoate]", "IC50": "< 100"}, {"smiles": "COCCN1C[C@@H](NC(=O)Nc2cc(-c3ccccc3)nn2CCO)[C@H](c2ccc(F)c(F)c2)C1", "note": "[Example 122, 1-((3S,4R)-4-(3,4-difluorophenyl)-1-(2-methoxyethyl)pyrrolidin-3-yl)-3-(1-(2-hydroxy-ethyl)-3-phenyl-1H-pyrazol-5-yl)urea]", "IC50": "100 to 1000"}, {"smiles": "COCCN1C[C@@H](NC(=O)Nc2c(C)c(COC)nn2-c2ccccc2)[C@H](c2ccc(F)c(F)c2)C1", "note": "[Example 123, 1-((3S,4R)-4-(3,4-difluorophenyl)-1-(2-methoxyethyl)pyrrolidin-3-yl)-3-(3-(methoxy-methyl)-4-methyl-1-phenyl-1H-pyrazol-5-yl)urea]", "IC50": "< 100"}, {"smiles": "COCCN1C[C@@H](NC(=O)Nc2c(C)c(COC)nn2-c2ccccc2)[C@H](c2cc(F)cc(F)c2)C1", "note": "[Example 124, 1-((3S,4R)-4-(3,5-difluorophenyl)-1-(2-methoxyethyl)pyrrolidin-3-yl)-3-(3-(methoxy-methyl)-4-methyl-1-phenyl-1H-pyrazol-5-yl)urea]", "IC50": "< 100"}, {"smiles": "COCCN1C[C@@H](NC(=O)Nc2cc(-c3ccc(SC)cc3)nn2C)[C@H](c2ccc(F)c(F)c2)C1", "note": "[Example 125, 1-((3S,4R)-4-(3,4-difluorophenyl)-1-(2-methoxyethyl)pyrrolidin-3-yl)-3-(1-methyl-3-(4-(methylthio)phenyl)-1H-pyrazol-5-yl)urea]", "IC50": "< 100"}, {"smiles": "COCCN1C[C@@H](NC(=O)Nc2cc(-c3ccccc3)nn2-c2ccccc2)[C@H](c2ccc(F)c(F)c2)C1", "note": "[Example 126, 1-((3S,4R)-4-(3,4-difluorophenyl)-1-(2-methoxyethyl)pyrrolidin-3-yl)-3-(1,3-diphenyl-1H-pyrazol-5-yl)urea]", "IC50": "< 100"}, {"smiles": "COCCCc1nn(-c2ccccc2)c(NC(=O)N[C@@H]2CN(CCOC)C[C@H]2c2ccc(F)c(F)c2)c1C", "note": "[Example 127, 1-((3S,4R)-4-(3,4-difluorophenyl)-1-(2-methoxyethyl)pyrrolidin-3-yl)-3-(3-(3-methoxypropyl)-4-methyl-1-phenyl-1H-pyrazol-5-yl)urea]", "IC50": "< 100"}, {"smiles": "COCCN1C[C@@H](NC(=O)Nc2c3c(nn2-c2ccccc2)CCC3)[C@H](c2ccc(F)cc2)C1", "note": "[Example 128, 1-((3S,4R)-4-(4-fluorophenyl)-1-(2-methoxyethyl)pyrrolidin-3-yl)-3-(2-phenyl-2,4,5,6-tetrahydrocyclo-penta[c]pyrazol-3-yl)urea]", "IC50": "< 100"}, {"smiles": "COCCN1C[C@@H](NC(=O)Nc2c(C)c(C)nn2-c2ccccc2)[C@H](c2ccc(F)cc2)C1", "note": "[Example 129, 1-(3,4-dimethyl-1-phenyl-1H-pyrazol-5-yl)-3-((3S,4R)-4-(4-fluorophenyl)-1-(2-methoxyethyl)pyrrolidin-3-yl)urea]", "IC50": "< 100"}, {"smiles": "COCCOc1ccc(-c2cc(NC(=O)N[C@@H]3CN(CCOC)C[C@H]3c3ccc(F)c(F)c3)n(C)n2)cc1", "note": "[Example 130, 1-((3S,4R)-4-(3,4-difluorophenyl)-1-(2-methoxyethyl)pyrrolidin-3-yl)-3-(3-(4-(2-methoxyethoxy)phenyl)-1-methyl-1H-pyrazol-5-yl)urea]", "IC50": "< 100"}, {"smiles": "COCCN1C[C@@H](NC(=O)Nc2c(OC)c(C)nn2-c2ccccc2)[C@H](c2ccc(F)c(F)c2)C1", "note": "[Example 131, 1-((3S,4R)-4-(3,4-difluorophenyl)-1-(2-methoxyethyl)pyrrolidin-3-yl)-3-(4-methoxy-3-methyl-1-phenyl-1H-pyrazol-5-yl)urea]", "IC50": "< 100"}, {"smiles": "COCCN1C[C@@H](NC(=O)Nc2c(C)c(CO)nn2-c2ccccc2)[C@H](c2ccc(F)c(F)c2)C1", "note": "[Example 132, 1-((3S,4R)-4-(3,4-difluorophenyl)-1-(2-methoxyethyl)pyrrolidin-3-yl)-3-(3-(hydroxy-methyl)-4-methyl-1-phenyl-1H-pyrazol-5-yl)urea]", "IC50": "< 100"}, {"smiles": "COCCN1C[C@@H](NC(=O)Nc2c(C)c(CCO)nn2-c2ccccc2)[C@H](c2ccc(F)c(F)c2)C1", "note": "[Example 133, 1-((3S,4R)-4-(3,4-difluorophenyl)-1-(2-methoxyethyl)pyrrolidin-3-yl)-3-(3-(2-hydroxy-ethyl)-4-methyl-1-phenyl-1H-pyrazol-5-yl)urea]", "IC50": "< 100"}]}]}
